# Laboratory results reported in patent US20260232767A1, “INTERLEUKIN-23 RECEPTOR ANTAGONIST PEPTIDES FOR USE IN THE TREATMENT OF PSORIASIS” (Janssen Pharmaceutica NV, priority 2023, published 2026).
# Tested on: subjects with moderate-to-severe plaque psoriasis
# Assay: PASI response, Example 2 long-term extension to Week 52
# Type: in vivo, human
# Settings: for Change from Baseline in PASI Total Score, LSMean: MMRM model
# Text: Described below is a multicenter, long-term extension (LTE), double-blind, dose-ranging, parallel group interventional study in participants from Example 1 to evaluate the long-term efficacy and safety of the hydrochloride salt of the compound of Formula (I) for the treatment of moderate-to-severe plaque psoriasis. Patients from Example 1 continued to receive the same dose of the compound of Formula (I) for an additional 36-week treatment period with a 4-week safety follow up period after the last administration of the compound of Formula (I). Patients randomized to placebo in Example 1 received the compound of Formula (I) at a dose of 100 mg QD starting at Week 16 of Example 1 (FIG. 21).
# The primary efficacy endpoint is the proportion of participants achieving a PASI 75 response at Week 52, defined as at least a […] reduction from baseline PASI of Example 1. For primary analysis, composite strategy (non-responder imputation) was applied to address intercurrent event #1 (Discontinuation of study intervention due to lack of efficacy or due to an AE of worsening of psoriasis) and […] (initiation of a protocol-prohibited medication or therapy that could improve psoriasis); treatment policy strategy (observed data) was applied to intercurrent event #3 (Discontinuation of study intervention due to other reasons). Participants with missing data after application of ICEs are considered as non-responders.
# Since there was no control arm (after week 16), in this primary analysis, only the proportion of participants who achieved a PASI75 response and its […] confidence interval at Week 52 were summarized for each intervention group.
# [1] = 50 mg QD, Week 52, non-responder imputation
smiles,measurement,setting,value
"CC(=O)NCCCC[C@@H]1NC(=O)[C@H](Cc2c[nH]c3c(C)cccc23)NC(=O)[C@H]([C@@H](C)O)NC(=O)[C@H](CC(N)=O)NC(=O)[C@@H](NC(C)=O)C(C)(C)SSC(C)(C)[C@@H](C(=O)N[C@@H](Cc2ccc(OCCN)cc2)C(=O)N[C@@H](Cc2ccc3ccccc3c2)C(=O)NC2(C(=O)N[C@@H](CCC(=O)O)C(=O)N[C@@H](CC(N)=O)C(=O)N[C@@H](Cc3cccnc3)C(=O)N(C)CC(N)=O)CCOCC2)NC1=O [IL-23 receptor antagonist peptide, Ac-[Pen]*-N-T-[W(7-Me)]-[Lys(Ac)]-[Pen]*-Phe[4-(2-aminoethoxy)]-[2-Nal]-[THP]-E-N-[3-Pal]-Sarc-NH2 (*[Pen]-[Pen]* formdisulfidebond)]","Change from Baseline in PASI Total Score, Median","50 mg QD, Week 16",−14.90
same,"Change from Baseline in PASI Total Score, LSMean","50 mg QD, Week 16",−14.4
same,"Change from Baseline in PASI Total Score, Mean","50 mg QD, Week 20",−14.92
same,"Change from Baseline in PASI Total Score, Median","50 mg QD, Week 20",−15.10
same,"Change from Baseline in PASI Total Score, LSMean","50 mg QD, Week 20",−14.7
same,"Change from Baseline in PASI Total Score, Mean","50 mg QD, Week 24",−15.10
same,"Change from Baseline in PASI Total Score, Median","50 mg QD, Week 24",−15.70
same,"Change from Baseline in PASI Total Score, LSMean","50 mg QD, Week 24",−14.9
same,"Change from Baseline in PASI Total Score, Mean","50 mg QD, Week 28",−14.75
same,"Change from Baseline in PASI Total Score, Median","50 mg QD, Week 28",−15.50
same,"Change from Baseline in PASI Total Score, LSMean","50 mg QD, Week 28",−14.6
same,"Change from Baseline in PASI Total Score, Mean","50 mg QD, Week 32",−14.88
same,"Change from Baseline in PASI Total Score, Median","50 mg QD, Week 32",−15.80
same,"Change from Baseline in PASI Total Score, LSMean","50 mg QD, Week 32",−14.6
same,"Change from Baseline in PASI Total Score, Mean","50 mg QD, Week 40",−14.33
same,"Change from Baseline in PASI Total Score, Median","50 mg QD, Week 40",−15.45
same,"Change from Baseline in PASI Total Score, LSMean","50 mg QD, Week 40",−14.2
same,"Change from Baseline in PASI Total Score, Mean","50 mg QD, Week 52",−14.45
same,"Change from Baseline in PASI Total Score, Median","50 mg QD, Week 52",−15.80
same,Subjects achieving PASI 75,"50 mg QD, Week 52",30 (69.8%)
same,"Change from Baseline in PASI Total Score, LSMean","50 mg QD, Week 52",−14.3
same,Subjects achieving 100% Improvement at Week 52 (PASI),[1],(20.9%)
same,Subjects achieving ≥75% Improvement at Week 52 (PASI 75 Response),[1],30 (69.8%)
same,Subjects achieving ≥90% Improvement at Week 52 (PASI),[1],(41.9%)
same,"Change from Baseline in PASI Total Score, Mean","100 mg BID, Week 1",−3.25
same,"Change from Baseline in PASI Total Score, Median","100 mg BID, Week 1",−1.20
same,"Change from Baseline in PASI Total Score, LSMean","100 mg BID, Week 1",−2.9
same,"Change from Baseline in PASI Total Score, Mean","100 mg BID, Week 2",6.07
same,"Change from Baseline in PASI Total Score, Median","100 mg BID, Week 2",−4.85
same,"Change from Baseline in PASI Total Score, LSMean","100 mg BID, Week 2",−5.7
same,"Change from Baseline in PASI Total Score, Mean","100 mg BID, Week 4",−10.71
same,"Change from Baseline in PASI Total Score, Median","100 mg BID, Week 4",−9.70
same,"Change from Baseline in PASI Total Score, LSMean","100 mg BID, Week 4",−10.0
same,"Change from Baseline in PASI Total Score, Mean","100 mg BID, Week 8",−14.66
same,"Change from Baseline in PASI Total Score, Median","100 mg BID, Week 8",−13.30
same,"Change from Baseline in PASI Total Score, LSMean","100 mg BID, Week 8",−13.8
same,"Change from Baseline in PASI Total Score, Mean","100 mg BID, Week 12",−16.77
same,"Change from Baseline in PASI Total Score, Median","100 mg BID, Week 12",−17.05
same,"Change from Baseline in PASI Total Score, LSMean","100 mg BID, Week 12",−15.9
same,"Change from Baseline in PASI Total Score, Mean","100 mg BID, Week 16",−17.44
same,"Change from Baseline in PASI Total Score, Median","100 mg BID, Week 16",−17.40
same,"Change from Baseline in PASI Total Score, LSMean","100 mg BID, Week 16",−16.5
same,"Change from Baseline in PASI Total Score, Mean","100 mg BID, Week 20",−17.83
same,"Change from Baseline in PASI Total Score, Median","100 mg BID, Week 20",−17.40
same,"Change from Baseline in PASI Total Score, LSMean","100 mg BID, Week 20",−17.0
same,"Change from Baseline in PASI Total Score, Mean","100 mg BID, Week 24",−17.99
same,"Change from Baseline in PASI Total Score, Median","100 mg BID, Week 24",−17.80
same,"Change from Baseline in PASI Total Score, LSMean","100 mg BID, Week 24",−17.1
same,"Change from Baseline in PASI Total Score, Mean","100 mg BID, Week 28",−17.96
same,"Change from Baseline in PASI Total Score, Median","100 mg BID, Week 28",−17.75
same,"Change from Baseline in PASI Total Score, LSMean","100 mg BID, Week 28",−17.2
same,"Change from Baseline in PASI Total Score, Mean","100 mg BID, Week 32",−18.37
same,"Change from Baseline in PASI Total Score, Median","100 mg BID, Week 32",−18.20
same,"Change from Baseline in PASI Total Score, LSMean","100 mg BID, Week 32",−17.3
same,"Change from Baseline in PASI Total Score, Mean","100 mg BID, Week 40",−18.30
same,"Change from Baseline in PASI Total Score, Median","100 mg BID, Week 40",−18.30
same,"Change from Baseline in PASI Total Score, LSMean","100 mg BID, Week 40",−17.4
same,"Change from Baseline in PASI Total Score, Mean","100 mg BID, Week 52",−18.46
same,"Change from Baseline in PASI Total Score, Median","100 mg BID, Week 52",−18.60
same,Subjects achieving PASI 75,"100 mg BID, Week 52",32 (76.2%)
same,"Change from Baseline in PASI Total Score, LSMean","100 mg BID, Week 52",−17.4
same,Subjects achieving ≥75% Improvement at Week 52 (PASI 75 Response),"100 mg BID, Week 52, non-responder imputation",32 (76.2%)
same,"Change from Baseline in PASI Total Score, Mean","100 mg QD, Week 1",−2.60
same,"Change from Baseline in PASI Total Score, Median","100 mg QD, Week 1",−1.10
same,"Change from Baseline in PASI Total Score, LSMean","100 mg QD, Week 1",−2.8
same,"Change from Baseline in PASI Total Score, Mean","100 mg QD, Week 2",−5.13
same,"Change from Baseline in PASI Total Score, Median","100 mg QD, Week 2",−3.25
same,"Change from Baseline in PASI Total Score, LSMean","100 mg QD, Week 2",−5.3
same,"Change from Baseline in PASI Total Score, Mean","100 mg QD, Week 4",−8.39
same,"Change from Baseline in PASI Total Score, Median","100 mg QD, Week 4",−7.30
same,"Change from Baseline in PASI Total Score, LSMean","100 mg QD, Week 4",−8.7
same,"Change from Baseline in PASI Total Score, Mean","100 mg QD, Week 8",−12.04
same,"Change from Baseline in PASI Total Score, Median","100 mg QD, Week 8",−11.30
same,"Change from Baseline in PASI Total Score, LSMean","100 mg QD, Week 8",−12.5
same,"Change from Baseline in PASI Total Score, Mean","100 mg QD, Week 12",−13.70
same,"Change from Baseline in PASI Total Score, Median","100 mg QD, Week 12",−13.60
same,"Change from Baseline in PASI Total Score, LSMean","100 mg QD, Week 12",−14.0
same,"Change from Baseline in PASI Total Score, Mean","100 mg QD, Week 16",−13.99
same,"Change from Baseline in PASI Total Score, Median","100 mg QD, Week 16",−14.75
same,"Change from Baseline in PASI Total Score, LSMean","100 mg QD, Week 16",−14.4
same,"Change from Baseline in PASI Total Score, Mean","100 mg QD, Week 20",−14.57
same,"Change from Baseline in PASI Total Score, Median","100 mg QD, Week 20",−14.10
same,"Change from Baseline in PASI Total Score, LSMean","100 mg QD, Week 20",−15.1
same,"Change from Baseline in PASI Total Score, Mean","100 mg QD, Week 24",−15.27
same,"Change from Baseline in PASI Total Score, Median","100 mg QD, Week 24",−14.90
same,"Change from Baseline in PASI Total Score, LSMean","100 mg QD, Week 24",−15.6
same,"Change from Baseline in PASI Total Score, Mean","100 mg QD, Week 28",−16.11
same,"Change from Baseline in PASI Total Score, Median","100 mg QD, Week 28",−15.00
same,"Change from Baseline in PASI Total Score, LSMean","100 mg QD, Week 28",−15.8
same,"Change from Baseline in PASI Total Score, Mean","100 mg QD, Week 32",−16.21
same,"Change from Baseline in PASI Total Score, Median","100 mg QD, Week 32",−15.10
same,"Change from Baseline in PASI Total Score, LSMean","100 mg QD, Week 32",−16.2
same,"Change from Baseline in PASI Total Score, Mean","100 mg QD, Week 40",−15.95
same,"Change from Baseline in PASI Total Score, Median","100 mg QD, Week 40",−15.00
same,"Change from Baseline in PASI Total Score, LSMean","100 mg QD, Week 40",−15.7
same,"Change from Baseline in PASI Total Score, Mean","100 mg QD, Week 52",−15.81
same,"Change from Baseline in PASI Total Score, Median","100 mg QD, Week 52",−15.00
